Measurements as given in patent publication US12582652B2, “3-(ethoxydifluoromethyl)-6-(5-fluoro-6-(2,2,2-trifluoroethoxy)pyridin-3-yl)-[1,2,4]triazolo[4,3-a]pyrazine as an ion channel modulator” (Praxis Precision Medicines, Inc., priority 2022, dated 2026).

Assays:
healthy participants = test: Phase 1 SAD/MAD trial: EEG pharmacodynamics (ASSR, qEEG); format: in vivo, human; conditions: for reduction from baseline in ASSR phase-locking factor (PLF): Day 14, 2 hours 35 minutes postdose
Procedure: This was a 3-part Phase 1 clinical trial in healthy participants aged 18-55 years. Parts A and B were randomized, placebo-controlled and evaluated the effects of single (2.5-150 mg) and multiple (30-120 mg, 14 days QD (every day)) ascending oral doses of Compound 1, respectively. Part C was an open-label, randomized, crossover design evaluating the PK of a single oral dose (90 mg) in fasted and fed states. In Parts A (n=64) and B (n=32), participants were randomized 3:1 to Compound 1 or placebo (n=8/cohort). In Part C (n=16), participants were randomized 1:1 to one of two treatment sequences receiving a single dose of 90 mg Compound 1 in the fed (following a high-fat/high calorie meal) or fasted (≥10 hours after the last, and 4 hours before the next, meal) state.
In this clinical trial, the PD activity of Compound 1 was evaluated in healthy participants using electroencephalogram (EEG)-based auditory steady-state response (ASSR) measures and resting state EEG (qEEG)-based spectral power measures under eyes-open and eyes-closed conditions.

human NaV1.6 = biological target: T1, human NaV1.6 (Homo sapiens, UniProt Q9UQD0); test: Peak INa use-dependent block (UDB-10 Hz), PatchXpress patch clamp; format: cell-based
T1 construct: stably expressing either human NaV1.6 (NP_055006); expressed in transfected cells
T1 sequence (Q9UQD0 whole entry): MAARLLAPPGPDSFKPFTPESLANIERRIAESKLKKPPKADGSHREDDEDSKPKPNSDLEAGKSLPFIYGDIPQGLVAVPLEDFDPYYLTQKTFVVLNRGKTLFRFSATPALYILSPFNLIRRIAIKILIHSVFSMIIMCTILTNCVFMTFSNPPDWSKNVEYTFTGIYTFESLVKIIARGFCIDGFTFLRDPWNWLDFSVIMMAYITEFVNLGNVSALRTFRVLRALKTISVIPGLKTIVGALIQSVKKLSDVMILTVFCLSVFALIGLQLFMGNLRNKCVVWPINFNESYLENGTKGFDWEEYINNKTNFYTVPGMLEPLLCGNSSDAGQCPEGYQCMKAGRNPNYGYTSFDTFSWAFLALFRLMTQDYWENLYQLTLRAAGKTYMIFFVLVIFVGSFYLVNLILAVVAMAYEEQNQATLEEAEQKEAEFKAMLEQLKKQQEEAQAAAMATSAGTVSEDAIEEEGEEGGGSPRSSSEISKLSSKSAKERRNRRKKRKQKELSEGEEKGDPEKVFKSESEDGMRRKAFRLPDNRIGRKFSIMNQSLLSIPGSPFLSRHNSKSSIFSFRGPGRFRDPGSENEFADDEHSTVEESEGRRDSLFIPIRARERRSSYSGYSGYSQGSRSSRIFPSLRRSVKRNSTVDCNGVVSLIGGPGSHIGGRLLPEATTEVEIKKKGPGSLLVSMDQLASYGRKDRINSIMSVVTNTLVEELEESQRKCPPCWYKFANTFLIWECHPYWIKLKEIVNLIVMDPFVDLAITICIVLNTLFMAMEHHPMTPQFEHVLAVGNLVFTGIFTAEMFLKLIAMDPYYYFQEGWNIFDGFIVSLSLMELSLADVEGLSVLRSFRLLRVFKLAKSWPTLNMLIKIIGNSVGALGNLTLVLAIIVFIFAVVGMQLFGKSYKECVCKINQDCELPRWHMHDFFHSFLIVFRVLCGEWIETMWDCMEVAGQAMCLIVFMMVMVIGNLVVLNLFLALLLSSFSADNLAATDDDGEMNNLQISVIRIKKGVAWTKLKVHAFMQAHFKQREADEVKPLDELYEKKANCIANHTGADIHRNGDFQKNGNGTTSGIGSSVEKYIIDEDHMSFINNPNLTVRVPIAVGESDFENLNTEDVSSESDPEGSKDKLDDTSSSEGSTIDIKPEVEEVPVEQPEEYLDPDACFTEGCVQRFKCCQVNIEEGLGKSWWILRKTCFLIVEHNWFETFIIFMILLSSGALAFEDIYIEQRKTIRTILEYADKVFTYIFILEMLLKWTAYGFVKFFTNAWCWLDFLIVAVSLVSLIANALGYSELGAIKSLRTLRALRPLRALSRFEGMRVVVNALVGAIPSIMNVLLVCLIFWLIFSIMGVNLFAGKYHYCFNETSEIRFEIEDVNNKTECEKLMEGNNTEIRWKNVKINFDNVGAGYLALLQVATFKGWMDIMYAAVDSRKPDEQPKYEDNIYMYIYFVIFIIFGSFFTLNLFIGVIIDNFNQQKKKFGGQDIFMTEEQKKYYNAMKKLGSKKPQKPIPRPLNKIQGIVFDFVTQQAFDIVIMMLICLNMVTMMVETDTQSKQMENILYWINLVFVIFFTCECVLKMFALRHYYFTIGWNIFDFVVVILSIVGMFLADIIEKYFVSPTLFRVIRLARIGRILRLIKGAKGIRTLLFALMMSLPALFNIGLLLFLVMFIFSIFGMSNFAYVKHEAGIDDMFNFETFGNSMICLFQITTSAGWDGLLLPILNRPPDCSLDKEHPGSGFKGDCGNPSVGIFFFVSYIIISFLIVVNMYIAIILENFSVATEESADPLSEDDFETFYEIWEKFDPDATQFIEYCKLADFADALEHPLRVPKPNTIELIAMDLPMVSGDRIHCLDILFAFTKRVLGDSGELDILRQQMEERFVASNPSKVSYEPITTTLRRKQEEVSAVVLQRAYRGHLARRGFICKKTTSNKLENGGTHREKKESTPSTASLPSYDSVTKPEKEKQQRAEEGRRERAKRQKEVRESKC

Hcn1 DEE mouse model = test: Pentylenetetrazole (PTZ) induced seizure, Hcn1 model; format: in vivo
Procedure: Pentylenetetrazole (PTZ), a GABA receptor antagonist, can be used to create a common, chemically-induced seizure model, a model of generalized seizure.
Mice were acclimated to experimental area for minimum 30 minutes before experimentation. All experiments were performed between 10:00 am and 12:30 pm. The treatment compounds and PTZ were always prepared fresh.
Mice were randomly assigned either to different doses of Compound 1 (10 mg/kg, 1 mg/kg, or 0.1 mg/kg) or a vehicle control containing 0.5% methylcellulose and 0.2% tween 80, and dosed via oral gavage (p.o). Compound 1 and the vehicle control were administered 60 minutes before the injection of PTZ.
PTZ (100 mg/kg) was dissolved in saline and administered subcutaneously (s.c) to the experimental mice. The latency to full tonic-clonic seizure with hind limb extension was measured. The animals were sacrificed either at the time of hind limb extension or 40 minutes after PTZ administration if no hind limb extension was recorded.
Data were analyzed using a Mantel-Cox log-rank test. Brain tissue and plasma were collected from some mice for each dose of Compound 1 at the PTZ endpoint for PK analysis.

[1] = tested on: hNaV1.1, hNaV1.2, hNaV1.5, rNaV1.2, dNaV1.2, mNaV1.6, rNaV1.6; test: Persistent INa of other NaV isoforms and orthologs, patch clamp; conditions: read-out: persistent INa IC50 values across isoforms and orthologs
Description: Persistent INa was activated from resting/closed channel conformations by maintaining a hyperpolarized holding potential (−120 mV).

CCOC(F)(F)c1nnc2cnc(-c3cnc(OCC(F)(F)F)c(F)c3)cn12 [Compound 1, 3-(ethoxydifluoromethyl)-6-(5-fluoro-6-(2,2,2-trifluoroethoxy)pyridin-3-yl)-[1,2,4]triazolo[4,3-a]pyrazine]
reduction from baseline in ASSR phase-locking factor (PLF) (healthy participants; 90 mg QD): approximately 30% | reduction from baseline in ASSR phase-locking factor (PLF) (healthy participants; 120 mg QD): ~60% | qEEG Delta (1.5-6 Hz) and Theta (6-8.5 Hz) band spectral power (healthy participants; 120 mg single dose and 120 mg QD): Increases from baseline | ASSR-based absolute evoked gamma power vs placebo (healthy participants; any Compound 1 dose level): No statistically significant differences | Ratio to Peak INa (TB) (UDB-10 Hz) (human NaV1.6; hNaV1.6): 31 | Ratio to Pers. INa (Peak INa UDB-10 Hz / persistent INa) (human NaV1.6; hNaV1.6): 2 | IC50 (human NaV1.6; hNaV1.6, 10 Hz): 271 nM | Peak INa UDB-10 Hz maximum inhibition (human NaV1.6; hNaV1.6, 10 Hz): 75% | use-dependent block at stimulation frequency of 10 Hz (human NaV1.6; hNaV1.6, 10 Hz): concentration dependent inhibition | use-dependent block at increased frequencies (human NaV1.6; hNaV1.6, 10 Hz, 30 Hz or 50 Hz): significantly greater compared with CBZ | protection from hindlimb extension (FIG. 14E) (Hcn1 DEE mouse model): robust anticonvulsant activity | IC50 [1]: 109 to 180 nM
